Test results: patent US5202242A, “A83543 compounds and processes for production thereof” (DowElanco, priority 1991, dated 1993)
In brackets after ≈: the same amount, converted by molar mass. Where two headings read alike, the source gives them in different places.

How the values were obtained:
[1] = tested on: Adult Stablefly; assay: In vitro activity against adult stable fly; type: in vivo; settings: Stomoxys calcitrans
Description: (§1) The formula 1A compounds are also active against members of the insect order Diptera. Tables VIII and IX summarize the in vitro studies of the formula 1A compounds against blowfly larvae and adult stable fly.

[2] = tested on: Two-spotted Spider Mite; assay: Mite/insect screen: Two-spotted Spider Mite (TSSM); type: in vivo; settings: Tetranychus urticae, 4-5 day
Procedure: (§2) The formula 1A compounds were tested for miticidal and insecticidal activity in the following mite/insect screen. Each test compound was formulated by dissolving the compound in an acetone-alcohol (1:1) mixture containing 23 g of TOXIMUL R (sulfonate/nonionic emulsifier blend) and 13 g of TOXIMUL S (sulfonate/nonionic emulsifier blend) per liter. These mixtures were then diluted with water to give the indicated concentrations.
(§3) Two-spotted spider mites and cotton aphids were introduced on squash cotyledons and allowed to establish on both leaf surfaces. The leaves were then sprayed with 5 ml of test solutions using a DeVilbiss atomizing sprayer at 10 psi. Both surfaces of the leaves were covered until run off and then allowed to dry for one hour. After standard exposure periods percent mortality was evaluated. Additional insects were evaluated using similar formulations and evaluation procedures.

[3] = tested on: Southern Corn Rootworm; assay: Mite/insect screen: Southern Corn Rootworm (SCRW); type: in vivo, Diabrotica undecimpunctata howardi; settings: 264 h, 11 day
Procedure: as §2, §3

[4] = tested on: Neonate Tobacco Budworm; assay: LD50 against neonate tobacco budworm (petri dish assay); type: in vivo; settings: Heliothis virescens; neonate larvae; mortality evaluated at 24 and 48 hours; mean of two tests
Procedure: The formula 1A compounds were evaluated in the following assay to determine the LD50 against neonate tobacco budworm (Heliothis virescens). A petri dish (100 mm×20 mm) is inverted and the lid lined with a #1 qualitative filter paper. Ten neonate larvae are placed in each dish and a 1 ml test solution is pipetted onto the insects. The petri dish bottom is then placed on the lid to contain the larvae. At 1 hr. after treatment, a small piece of Heliothis diet (modified shurry, Southland Products, Lake Village, AR) is added to each dish. The mortality is evaluated at 24 and 48 hours. Each test is run in triplicate.

[5] = tested on: Rootknot Nematode; assay: Mite/insect screen: Rootknot Nematode (NEM); type: in vivo, Meliiodyne spp.; settings: 264 h, 11 day
Procedure: as §2, §3

[6] = tested on: Tobacco Budworm; assay: Mite/insect screen: Tobacco Budworm (TBW); type: in vivo; settings: Heliothis virescens, 144 h, 6 day
Procedure: as §2, §3

[7] = tested on: Cotton Aphid; assay: Mite/insect screen: Cotton Aphid (CA); type: in vivo, Aphis gossypii Glover; settings: Aphis gossypii, 4-5 day
Procedure: as §2, §3

[8] = tested on: Beet Armyworm; assay: Mite/insect screen: Beet Armyworm (BAW); type: in vivo, Spodoptera exiqua; settings: Spodoptera exigua, 144 h, 6 day
Procedure: as §2, §3

[9] = tested on: German Cockroach; assay: Mite/insect screen: German Cockroach (GECR); type: in vivo; settings: Blattella germanica
Procedure: as §2, §3

[10] = tested on: Aster Leafhopper; assay: Mite/insect screen: Aster Leafhopper (ALH); type: in vivo; settings: Macrosteles fascifrons, 24 hr
Procedure: as §2, §3

[11] = tested on: Blowfly Larvae; assay: In vitro activity against blowfly larvae; type: in vivo; settings: 5 ppm
Description: as §1

[12] = 24 hr, read-out: % mortality 24 hr
[13] = 48 hr, read-out: % mortality 48 hr

Row | Structure (SMILES) | mortality at 5 ppm [1, 12] [%] | mortality at 5 ppm [1, 13] [%] | inhibition at 200 ppm [2] [%] | inhibition at 400 ppm [2] [%] | inhibition at 200 ppm [3] [%] | inhibition at 400 ppm [3] [%] | LC50 [4] [µg/mL] | inhibition at 200 ppm [5] [%] | inhibition at 400 ppm [5] [%] | inhibition at 200 ppm [6] [%] | inhibition at 400 ppm [6] [%] | inhibition at 200 ppm [7] [%] | inhibition at 400 ppm [7] [%] | inhibition at 200 ppm [8] [%] | inhibition at 400 ppm [8] [%] | inhibition at 200 ppm ([9]; 168 h, 7 day) [%] | inhibition at 400 ppm ([9]; 168 h, 7 day) [%] | inhibition at 200 ppm ([9]; 504 h, 21 day) [%] | inhibition at 400 ppm ([9]; 504 h, 21 day) [%] | inhibition at 200 ppm [10] [%] | other results
1 | CCC1CCCC(OC2CCC(N(C)C)C(C)O2)C(C)C(=O)C2=CC3C(C=C(C)C4CC(OC5OC(C)C(OC)C(O)C5OC)CC43)C2CC(=O)O1 (stereo not shown) [Compound A83543L] | 70 | 100 | 0 | 0 | 0 | 0 | 26 (≈ 35.5 µM) | 0 | 0 | 100 | 100 | 0 | 0 | 100 | 100 | 40 | 0 | 100 | 100 | 100 | inhibition at 400 ppm [10]: 100%; % mortality [11]: 90%
2 | CCC1CCCC(OC2CCC(NC)C(C)O2)C(C)C(=O)C2=CC3C(C=CC4CC(OC5OC(C)C(OC)C(O)C5OC)CC43)C2CC(=O)O1 (stereo not shown) [Compound A83543M] | 60 | 100 | 0 | 0 | 0 | 0 | 22.6 (≈ 32.1 µM) | 0 | 0 | 70 | 100 | 0 | 0 | 0 | 0 | 0 | 0 | 20 | 40 | 60 | inhibition at 400 ppm [10]: 100%
3 | CCC1CCCC(OC2CCC(NC)C(C)O2)C(C)C(=O)C2=CC3C(C=C(C)C4CC(OC5OC(C)C(OC)C(O)C5OC)CC43)C2CC(=O)O1 (stereo not shown) [Compound A83543N] | 20 | 90 | 0 | 0 | 0 | 0 | 40 (≈ 55.7 µM) | 0 | 0 | 100 | 100 | 0 | 0 | 90 | 100 | 0 | 0 | 0 | 0 | 100 | inhibition at 400 ppm [10]: 100%
